Test results reported in patent publication US20100331348A1, “TROPANE DERIVATIVES USEFUL AS PESTICIDES” (SYNGENTA CROP PROTECTION, INC., priority 2007, published 2010).
Where two headings read alike, the source gives them in different places.

Legend:
[1] = test system: Erysiphe graminis f.sp. tritici; test: Erysiphe graminis f.sp. tritici (wheat powdery mildew) leaf disk assay; assay type: in vivo; details: Blumeria graminis, foliar, 96 h, preventive, four days after inoculation, read-out: control of fungal infection, Erysiphe graminis fsp. tritici
[2] = test system: Puccinia recondita f.sp. tritici; test: Puccinia recondita f.sp. tritici (wheat brown rust) leaf disk assay; assay type: in vivo; details: foliar, 216 h, preventive, nine days after inoculation, read-out: control of fungal infection, Puccinia recondita f.sp. tritici
Pyricularia oryzae = test: whole plant or invertebrate; assay type: in vivo; details: foliar, 96 h
Heliothis virescens = Heliothis virescens (Tobacco budworm) egg test on artificial diet; details: 96 h, read-out: control of Heliothis virescens
Aedes aegypti = Aedes aegypti (Yellow fever mosquito) larvae test; assay type: in vivo; details: 48 h
Tetranychus urticae = details: foliar, 192 h, read-out: control of Tetranychus urticae
Plutella xylostella = Plutella xylostella (Diamond back moth) artificial diet test; details: 120 h, read-out: control of Plutella xylostella
Phytophthora infestans = test: whole plant or invertebrate; assay type: in vivo; details: foliar, 96 h, read-out: control of fungal infection, Phytophthora infestans
Plasmopara viticola = Plasmopara viticola (downy mildew of grapevine) leaf disk assay; assay type: in vivo; details: foliar, 168 h, preventive, seven days after inoculation, read-out: control of fungal infection, Plasmopara viticola
[3] = read-out: control of fungal infection, Pyricularia oryzae (at least 60% list)
[4] = read-out: control of fungal infection, Pyricularia oryzae (at least 80% list)

Compound	pest or weed control at 200 ppm [1] [%]	pest or weed control at 200 ppm [2] [%]	pest or weed control at 200 ppm (Pyricularia oryzae; [3]) [%]	pest or weed control at 200 ppm (Pyricularia oryzae; [4]) [%]	pest or weed control at 200 ppm (Heliothis virescens) [%]	pest or weed control at 2 ppm (Aedes aegypti) [%]	pest or weed control at 200 ppm (Tetranychus urticae) [%]	pest or weed control at 200 ppm (Plutella xylostella) [%]	pest or weed control at 200 ppm (Phytophthora infestans) [%]	pest or weed control at 200 ppm (Plasmopara viticola) [%]
Fc1cc(Cl)cnc1OC1C[C@H]2CC[C@@H](C1)N2c1ncnc2sccc12 (stereo partly drawn) [Example 1.72]	≥ 80	≥ 80	≥ 60	≥ 80	≥ 80	–	–	–	–	–
FC(F)(F)c1ccc(OC2C[C@H]3CC[C@@H](C2)N3c2ncnc3ccccc23)nc1 (stereo partly drawn) [Example 2.85]	≥ 80	–	≥ 60	–	≥ 80	≥ 80	≥ 80	–	–	–
CCc1ncnc(N2C3CCC2CC(=CCOc2cccc(F)c2)C3)c1Cl [Example 3.12]	–	≥ 80	–	≥ 80	≥ 80	≥ 80	–	≥ 80	–	–
CCc1ncnc(N2C3CCC2CC(=CCOc2ccc(Cl)c(OC)c2)C3)c1Cl [Example 3.13]	–	≥ 80	–	≥ 80	≥ 80	≥ 80	–	–	–	–
Cc1ccc(OCC=C2CC3CCC(C2)N3c2ncnc3sccc23)cc1 [Example 3.30]	–	≥ 80	–	≥ 80	≥ 80	≥ 80	–	–	≥ 80	≥ 80
C#CCN(CC#C)C1C[C@H]2CC[C@@H](C1)N2c1ncnc(CC)c1Cl (stereo partly drawn) [Example 4.19]	–	≥ 80	–	–	≥ 80	–	–	–	–	–
CCc1ncnc(N2C3CCC2CC(=NOCc2ccccc2)C3)c1Cl [Example 5.5]	≥ 80	≥ 80	–	–	≥ 80	≥ 80	–	≥ 80	≥ 80	–
CCc1ncnc(N2C3CCC2CC(=NOCc2ccc(C#N)cc2)C3)c1Cl [Example 5.14]	≥ 80	≥ 80	–	≥ 80	≥ 80	–	–	≥ 80	–	–
CCc1ncnc(N2C3CCC2CC(=NOCc2cc(F)ccc2F)C3)c1Cl [Example 5.73]	≥ 80	≥ 80	≥ 60	–	≥ 80	≥ 80	–	≥ 80	–	–
CCc1ncnc(N2C3CCC2CC(=NOCc2ccc(Br)cc2F)C3)c1Cl [Example 5.85]	–	–	–	–	≥ 80	–	≥ 80	≥ 80	–	–
CCc1ncnc(N2C3CCC2CC(=NOCc2cc(F)c(F)cc2F)C3)c1Cl [Example 5.87]	≥ 80	≥ 80	–	–	≥ 80	≥ 80	–	≥ 80	–	–
N#Cc1ccc(CON=C2CC3CCC(C2)N3c2ncnc3sccc23)cc1 [Example 5.163]	≥ 80	≥ 80	–	≥ 80	≥ 80	≥ 80	–	≥ 80	≥ 80	–
CCCCC1COC2(CC3CCC(C2)N3c2ncnc3sccc23)O1 (stereo not drawn) [Example 6.3]	≥ 80	–	–	–	≥ 80	≥ 80	–	≥ 80	≥ 80	≥ 80
Cc1ccc(CC2CC3CCC(C2)N3c2ncnc3sccc23)cc1 (stereo not drawn) [Example 7.8]	–	≥ 80	≥ 60	≥ 80	≥ 80	≥ 80	–	≥ 80	–	≥ 80
CCc1ncnc(N2C3CCC2CC(Cc2ccc(C)cc2)C3)c1Cl (stereo not drawn) [Example 7.26]	–	–	–	–	≥ 80	≥ 80	–	≥ 80	–	–
